Data from BigSolDB 2.1.

O=C1CCCCCCCCCCC1
solubility (mole fraction)
Conditions	278.15 K	283.15 K	288.15 K	293.15 K	298.15 K	303.15 K	308.15 K	313.15 K
in 1,2-dichloroethane	0.366	0.394	0.441	0.459	0.511	0.549	0.604	0.657
in acetone	0.142	0.184	0.229	0.285	0.362	0.432	0.517	0.618
in acetonitrile	0.0485	0.0711	0.104	0.16	0.225	0.322	0.466	0.637
in cyclohexane	–	0.21	0.263	0.308	0.366	0.441	0.515	0.598
in ethanol	0.0472	0.0701	0.0949	0.127	0.183	0.243	0.348	0.461
in ethyl acetate	0.195	0.235	0.286	0.345	0.407	0.477	0.553	0.615
in isobutanol	0.0949	0.121	0.158	0.202	0.261	0.331	0.424	0.54
in isopropanol	0.0967	0.122	0.155	0.2	0.262	0.341	0.445	0.55
in methanol	0.0155	0.0267	0.04	0.0679	0.108	0.166	0.272	0.399
in n-butanol	0.0988	0.125	0.164	0.204	0.258	0.327	0.415	0.527
in n-propanol	0.118	0.144	0.182	0.228	0.293	0.37	0.467	0.567
in toluene	0.33	0.378	0.41	0.454	0.501	0.553	0.607	0.675
